# Data from US20220260587A1, “METHOD” (Worg Pharmaceuticals (Hangzhou) Co., Ltd., priority 2019, published 2022).
# What was measured:
# [1] = target: MHCII (HLA-DR2) with bound CLIP (MHCII-CLIP) (Homo sapiens, UniProt P01903+P01911); test: CLIP displacement assay; format: cell-based; conditions: MBP-specific T cell line 24 hours
# Procedure: Response of MBP-specific T cell line to HLA-DR2 monomers following peptide exchange. Biotinylated HLA-DR2 (DRB1*1501) monomers, with the CLIP peptide bound, were attached to neutravidin coated 96 well plates. Wells were incubated with the indicated concentration of MBP 83-99, a dominant HLA-DR2 restricted epitope of MBP, for 16 hours and the plates washed. Control wells were coated with the DR2 monomer pre-loaded with the MBP 83-99 peptide. A T cell line specific for MBP was incubated with the monomers at 37° C. for 24 hours and response assessed by measurement of secreted IL-2.
# MHCII (HLA-DR2) with bound CLIP (MHCII-CLIP) was affixed to wells of a 96-well plate using neutravidin and biotin. In particular, 96-well plates were coated with 15 μg/ml neutravidin in PBS overnight at 4° C. Plates were washed twice with wash buffer (0.1% BSA/PBS) and blocked with 1% BSA in PBS for 2 hours at room temperature. Plates were washed twice with wash buffer and 0.125 μg/ml of biotin-MHCII-CLIP in PBS was added for a 2-hour incubation at room temperature in a humid atmosphere. Plates were washed 4 times with wash buffer, leaving wells coated in MHCII-CLIP. Positive control wells were coated with MHCII with bound MBP 83-99 (instead of CLIP). […]
# T cell activation was assessed by measuring secreted IL2.
# MHCII on dendritic cells = test: In vivo MHCII loading assay; design: species or system HLA-DRtg mice; conditions: for CD4+ T cell activation (IFNγ) by dendritic cells loaded in vivo: 100 μg peptide subcutaneously, spleen CD11c+ cells 2 hours post injection, co-culture 72 hours, FIG. 4
# Procedure: Response of peptide-specific CD4^+ T cells towards peptide loaded in vivo on dendritic cells. […] 2 h post injection, spleens were dissected and CD11c^+ cells (dendritic cells) were isolated. These CD11c^+ cells were co-cultured with peptide-specific CD4+ cells for 72 h at 37° C. IFNγ was measured in the supernatant of these cultures to evaluate the response to peptide by the CD4^+ T cells.
# In particular, HLA-DRtg mice were injected with 100 μg of peptide in 100 μl PBS subcutaneously in the flank. Control animals received a subcutaneous injection of 100 μl PBS. After 2 hours, spleens were harvested and single-cell suspensions were made. CD11c^+ cells (splenic dendritic cells) were positively selected using CD11c microbeads according to the manufacturer's instructions (Miltenyi Biotec, Bergisch Gladbach, Germany). Average purities of >92% were reached.
# 1×10^5 CD11c^+ cells were co-cultured with 1×10^5 CD4^+ cells (primary T cells) in round bottom 96-well plates in X-vivo 15 medium (supplemented with 2 mM L-glutamine, 50 U/mL penicillin and 50 U/mL streptomycin; Lonza). The CD4^+ cells were isolated from HLA-DRtg mice that were immunised subcutaneously in the base of the tail with 50 μg peptide emulsified in CFA (peptide/CFA). Ten days after immunisation, draining lymph nodes (LN) and spleens were harvested. LN cells and splenocytes were isolated and CD4^+ T cells were isolated by negative selection using Magnisort Mouse CD4 Isolation kit (ThermoFisher Scientific) according to the manufacturer's instructions.
# After 72 hours, supernatant of the CD11c^+-CD4^+ co-cultures was collected. CD4^+ T cell activation was analysed by IFNγ ELISA (R&D Systems, Abingdon, UK). In a parallel experiment, CD4^+ T cell responses towards peptide added in vitro were assessed to make sure the T cells recognize the peptides presented by the CD11c^+ cells.
# MHCII = conditions: test peptides of the competition assay; cited from earlier work
# [2] = tested on: response to protein antigen (SAg) in lymph node and spleen cells; test: Ex vivo tolerance assay; format: in vivo, HLA-DR transgenic mice; conditions: dose-escalating subcutaneous injections (0,1; 1; 10 and 3×100 μg), IFNg response to SAg, FIG. 5
# Procedure: Response to protein antigen in lymph nodes (A) and spleens (B) of peptide-treated and non-treated mice. HLA-DR transgenic mice were treated with a dose-escalating regime of subcutaneous injections (0,1; 1; 10 and 3×100 μg every other day) of a tolerogenic (peptide Q) or non-tolerogenic (peptide P) peptide, or control injections (PBS). Afterwards, mice were immunized with peptide antigen in CFA and 10 days later, lymph nodes and spleens were dissected. Lymph node and spleen cells were cultured in vitro for 3 days at 37° C. in the presence of protein antigen (SAg) or positive control (PPD). The response of the cells towards the protein antigen was evaluated by measuring IFNg levels in supernatant of the cultures. *p<0.05
# HLA-DRtg mice were injected subcutaneously in the flank region with 0.1 μg, 1 μg and 10 μg of peptide on days −15, −13 and −11 respectively, followed by 3 injections of 100 μg peptide on days −8, −6 and −4 (dose escalation schedule). On day 0, the mice were immunised subcutaneously in the base of the tail with 50 μg antigen (parental peptide) emulsified in CFA (peptide/CFA).
# Ten days after immunisation, draining lymph nodes (LN) and spleens were harvested. […]
# IFNγ concentrations in supernatants were assessed by cytokine ELISA (R&D Systems, Abingdon, UK) and cell activation was measured.
# EAE = conditions: cited from earlier work
# Sequence of MHCII (HLA-DR2) with bound CLIP (MHCII-CLIP) (P01903 26-254): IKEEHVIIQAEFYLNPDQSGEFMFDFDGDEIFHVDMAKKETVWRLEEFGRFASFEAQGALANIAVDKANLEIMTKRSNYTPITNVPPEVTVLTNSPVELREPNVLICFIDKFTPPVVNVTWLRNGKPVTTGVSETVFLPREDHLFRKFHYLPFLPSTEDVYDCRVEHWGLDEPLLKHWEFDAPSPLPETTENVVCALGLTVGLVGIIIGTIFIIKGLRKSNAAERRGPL
# Sequence of MHCII (HLA-DR2) with bound CLIP (MHCII-CLIP) (P01911 30-227 limits assumed): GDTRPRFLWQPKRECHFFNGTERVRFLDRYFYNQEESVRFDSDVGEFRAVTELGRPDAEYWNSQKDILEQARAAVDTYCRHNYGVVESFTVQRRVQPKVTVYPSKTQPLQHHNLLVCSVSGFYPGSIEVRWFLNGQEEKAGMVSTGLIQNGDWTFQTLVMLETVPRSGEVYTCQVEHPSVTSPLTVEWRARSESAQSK
substance,measurement,setting,value
ENPVVHFFKNIVTPRIP [MBP 83-99],T cell activation (secreted IL2),[1]; MBP 83-99 at 3 μM added to MHCII-CLIP (CLIP monomer) for 16 hours,T cells are activated
same,T cell activation (secreted IL2),[1]; MBP 83-99 at 30 μM added to MHCII-CLIP (CLIP monomer) for 16 hours,T cells are activated
GILVSYQIKVK (H-GILVSYQIKVK-NH2) [Peptide N],CD4+ T cell activation (IFNγ) by dendritic cells loaded in vivo,MHCII on dendritic cells,did not cause T cell activation
same,HLA-DR binding,MHCII on dendritic cells; designation in legend of FIG. 4,HLA-DR non-binding
GLKMFPDLTKVYSTD (H-GLKMFPDLTKVYSTD-NH2) [Peptide L],affinity for MHCII (known),MHCII,good affinity
KKEIFKKISRDKSVTIYLEKK (H-KKEIFKKISRDKSVTIYLEKK-NH2) [Peptide M],affinity for MHCII (known),MHCII,poor affinity
KKIFKKISRDKSVTIYLKK (H-KKIFKKISRDKSVTIYLKK-NH2) [Peptide P],tolerogenicity,[2],non-tolerogenic
KKKGILVSYQIKVKKKK (H-KKKGILVSYQIKVKKKK-NH2) [Peptide 0],CD4+ T cell activation (IFNγ) by dendritic cells loaded in vivo,MHCII on dendritic cells,did
KKKIFKKISRDKSVTIYLKKK (H-KKKIFKKISRDKSVTIYLKKK-NH2) [Peptide Q],tolerogenicity,[2],tolerogenic
LILLPLLANNRERRGIALDGKIKHEDTNLASSTIIKEG [Peptide K],affinity for MHCII (known),MHCII,poor affinity
"MBP peptide 89-101: myelin basic protein (MBP) peptide 89-101, immunodominant antigen after immunisation (PHLIRLFSRDAPG; UniProt P02686 89-101, looked up, fragment)",inducing tolerance,EAE; administered in solution,ineffective
same,immunogen: priming for T cell reactivity and induction of EAE,EAE; after immunisation,very effective immunogen
"NPILLWQPIPVHTVPLSEDQ (H-NPILLWQPIPVHTVPLSEDQ-NH2) [Peptide J, reference compound]",affinity for MHCII (known),MHCII,good affinity
